Reference: patent publication US7855076B2, “Use of discoidin domain receptor 1 (DDR1) and agents that affect the DDR1/collagen pathway” (The United States of America as represented by the …, priority 2002, dated 2010)

What was measured:
Assay type in all cases: cell-based, human
[1] = tested on: DDR1; test: Cell-surface DDR1 expression on PMN by flow cytometry; conditions: 24 hours
Description: PMN were incubated in presence of IFN-γ or GM-CSF for 24 hours and the expression of cell-surface DDR1 was measured by flow cytometry using an antibody raised against the extracellular domain of the receptor. One hundred thousand cells were suspended in 50 μl of cold PBS containing 0.1% NaN3, […] BSA and 200 μg/ml human IgG in a Falcon 2052, tube, and incubated for 10 minutes on ice. One μg of anti-DDR1 rabbit polyclonal antibody raised aginst the N-terminus of DDR1 (Transgenic, Inc., Kumamoto, Japan), or control mouse IgG was added to each tube and the cells were incubated for another 15 minutes on ice. The cells were washed with PBS, and then incubated with 1 μg of FITC-conjugated goat anti-mouse IgG for 15 minutes on ice. At the end of incubation, PI was added to each tube (100 μM). The cells were washed by PBS, and subsequently analyzed by using a FACS scan (Becton Dickinson). Dead cells, determined by the incorporation of PI, were gated out. Results were processed by using the Cellquest software (Becton Dickinson).

[2] = tested on: DDR1 protein; test: DDR1 protein expression in leukocytes by immunoprecipitation and Western blotting
Description: For Western blot analysis, cell lysates were prepared from freshly isolated PBMC, PBMC incubated overnight in RPMI 1640 containing 10% FCS, and MCF-7 cells. Cells were lysed on ice for 20 minutes in a buffer containing 50 mM Hepes, 150 mM NaCl, 1% Triton X-100, 10% glycerol, 10 mM NaF, 1 mM ethylenediamine tetraacetic acid, […], 1 mg/ml leupeptin, 1 mM phenylmethylsulfonyl fluoride, 1 mg/ml aprotinin, and 1 mg/ml pepstatin A. The lysates were spun, and the supernatants were collected. The samples were incubated with approximately 20 μl packed volume of PGS for 1 hour at 4° C. After centrifugation, supernatants were collected, mixed with 1 μg/ml normal rabbit IgG or polyclonal anti-human DDR1 IgG, and incubated for 1 hour at 4° C. PGS (20 μl) was then added and incubated for another 1 hour. IgG-coupled PGS was washed with the buffer containing 50 mM Hepes, 150 mM NaCl, 0.1% Triton X-100, 10% glycerol buffer three times, and 20 μl double-strength sample buffer (20% glycerol, 6% sodium dodecylsulfate (SDS), 10% 2-mercaptoethanol) was added. The samples were boiled for 10, minutes. Eluted proteins were analyzed on 7.5% polyacrylamide gels by SDS polyacrylamide gel electrophoresis (SDS-PAGE) and transferred electrophoretically to nitrocellulose membranes (Amersham, Arlington Heights, Ill.) at 200 mA for 2 hours by a semi-dry system. The membranes were incubated with polyclonal anti-human DDR1 or anti-phosphotyrosine IgG, followed by sheep anti-mouse IgG coupled with horseradish peroxidase (Amersham). Peroxidase activity was visualized by the Enhanced Chemiluminescence Detection System (Amersham).
There was no detectable DDR1 protein in freshly isolated PBMC. DDR1 protein was detected clearly after overnight incubation in RPMI 1640 containing 10% FCS. In order to study the kinetics of DDR1 protein expression, PBMC were incubated with or withour addition of TNF-α (5 ng/ml), or GM-CSF (10 ng/ml) for 36 hours and cell lysates were prepared. Cell lysates were subjected to immunoprecipitation with anti-DDR1 IgG or control IgG. […]

[3] = tested on: DDR1 mRNA; test: DDR1 mRNA expression in PBMC by Northern blotting; conditions: 8 hours, TNF-α 5 ng/ml, IL-1β 10 ng/ml, IFN-γ 50 U/ml, GM-CSF 10 ng/ml, LPS 1 μg/ml, PHA 5 μg/ml
Description: PMN and PBMC were maintained at a density of 5×10^6 cells/ml in the complete medium in six-well tissue culture cluster (Coster, Cambridge, Mass.; 3 ml/well). Total RNA was extracted from each culture by using TRIZOL® Reagent. PolyA mRNA was purified on Oligotex columns (Qiagen, Valencia, Calif.). Northern blot analysis was performed as described (Yoshimura, J. Immunol. 150:5025, 1993), except that ULTRAhyb (Ambion) was used. A human DDR1 cDNA (757-bp) was obtained by PCR from a U-105 human glioblastoma cell line cDNA library and was ligated into the EcoRI/HindIII site of the pBluescript (Stratagene, La Jolla, Calif.). The sense primer was 5′-[…]-3′ (SEQ ID NO: 2; corresponding to residues between 68 and 87 in the nucleotide sequence of the trkE cDNA, GenBank accession number X74979) and the antisense primer was 5′-[…]-3′ (SEQ ID NO: 3; corresponding to residues between 805 and 824 in the nucleotide sequence of the trkE cDNA).
Freshly isolated PBMC expressed only a low level of DDR1 mRNA. The expression level was increased about eightfold when the cells were incubated in either RPMI 1640 or RPMI 1640 containing 10% FCS.

[4] = tested on: THP-1 cells; test: Cell migration assay, 24-well BioCoat Insert Chamber; conditions: parental, mock-infected and DDR1a-overexpressing THP-1 cells; MCP-1 10 ng/ml in outer wells, membrane only, 3 hours
Description: Migration of each cell type in response to medium (open column) or MCP-1 (closed column) was measured in the 24-well BioCoat Insert Chamber as described in Example 1 below. In FIG. 3A, results are shown from experiments where inner wells and outer wells were separated by a membrane only. Chambers were incubated at 37° C. for 3 hours. In FIG. 3B, results are shown from experiments where approximately 3 mm of collagen lattice was created above the membrane. Chambers were incubated at 37° C. for 8 hours. The number of migrated cells was counted in each 400× magnified field. The results were presented as migration index denoting the fold increase of cell migration over control (the number of migrated parental cells=1). Data are representative of three experiments with two independent clones overexpressing either DDR1, a or DDR1b.
The cell migration assay was performed by using the 24-well BioCoat Insert Chamber (Becton Dickinson, Bedford, Mass.). […] After a 3-hour incubation at 37° C., the numbers of cells that were adhering on the other side of the membrane and also had fallen into the outer wells were counted. […] After an 8-hour incubation at 37° C., the numbers of cells that were adhering on the other side of the membrane and also had fallen into the outer wells were counted. […]

[5] = tested on: THP-1 cells; test: Adherence of THP-1 cells to coated plates; conditions: plates coated with fibronectin; DDR1a- and DDR1b-overexpressing cells
Description: 5×10^5 cells/ml were cultured on either BSA (10 mg/ml)- or collagen (20 μg/ml) and BSA-coated plates for 30 (FIG. 2A) or 120 minutes (FIG. 2B) at 37° C. in a 5% CO2 humidified incubator. Normal mouse IgG or anti-β1 integrin blocking IgG was added to measure the effect of β1 integrin in the assay. The number of adherent cells in each 400× visual field was counted. The results are presented as means ±SE of four individual fields. Data are representative of three experiments with two independent clones overexpressing either DDR1a or DDR1b.
To determine the effects of collagen on the functions of DDR1a- and DDR1b-overexpressing THP-1 cells, the cells were incubated on collagen-coated plastic plates. Twenty-four-well plates were coated with 100 μl/well human collagen type I (20 μg/ml) overnight at 4° C., and then with 200 μl/well 10 mg/ml bovine serum albumin (BSA) for 1 hour at 37° C. Cells were plated at the cell density of 1×10^5 cells/ml to the coated wells and were incubated for 30 minutes at 37° C. in 5% CO2 humidified atmosphere. Nonadherent cells were removed by washing three times with PBS. Cells that remained on the coated surface were considered to be adherent, and the number of cells in each 400 field was counted. Results were presented as mean ±SE per 400 field.

[6] = tested on: PMN; test: MCP-1 release by PMN (neutrophils), ELISA
Description: Human PMN and peripheral blood mononuclear cells (PBMC) were obtained from heparinized blood from human donors (10 units of heparin per ml of blood). One volume of 5% dextran (T-500 Pharmacia, Piscataway, N.J.) in phosphate buffered saline (PBS) was added to three volumes of blood in 50 ml polypropylene tubes. After a 40 minute incubation at room temperature, the leukocyte-rich plasma layer was removed and overlaid onto Lymphoprep in 50 ml tubes and the tubes were centrifuged at 800×g for 20 minutes at room temperature. PMN were separated from erythrocytes by lysis in 0.2% NaCl, washed in complete medium three times at 4° C. and resuspended in complete medium. PBMC contained in the PMN preparations obtained by this method were less than 0.5% by morphologic examination. Cell viability was higher than 98% by trypan blue staining.
A panel of cytokines was previously tested for their ability to induce MCP-1 production in PMN and it was reported that TNF-α and IFN-γ could cooperate to induce a high level of MCP-1 production (Yamashiro et al., J. Leukoc. Biol. 69:698, 2001). […] The majority of MCP-1 was released between 24 hours and 48 hours, showing a delayed kinetics of MCP-1 release. […] The effect of IFN-γ was dose-dependent.
To confirm that activation of DDR1 was responsible for the increased release of MCP-1 by PMN treated with IFN-γ and collagen, 513 anti-DDR1 Ab was used instead of collagen. The concentrations of MCP-1 were measured in the Lymphokine Testing Laboratory, Clinical Services Program, SAIC-Frederick (Frederick, Md.) with an ELISA kit (R&D Systems) specific for human MCP-1.

## GM-CSF: human recombinant granulocyte macrophage-colony stimulating factor
[1]
  level of DDR1 expression: slightly increased
[2]; PBMC, TNF-α 5 ng/ml or GM-CSF 10 ng/ml, 36 hours
  level of DDR1 protein expression: increased
[2]; monocytes
  DDR1 protein expression: increased
[3]
  level of DDR1 mRNA expression: further augmented

## MCP-1: human recombinant monocyte chemoattractant protein-1
[4]
  migration of cells: increased two- to threefold

## fibronectin [reference compound]
[5]
  adherence or shape change: no effect

B1: IFN-γ: human recombinant interferon-γ (protein, UniProt P01579 24-161, looked up)
Interferon gamma: QDPYVKEAENLKKYFNAGHSDVADNGTLFLGILKNWKEESDRKIMQSQIVSFYFKLFKNFKDDQSIQKSVETIKEDMNVKFFNSNKKKRDDFEKLTNYSVTDLNVQRKAIHELIQVMAELSPAAKTGKRKRSQMLFRG
[1]
  level of DDR1 expression: markedly increased
[6]; PMN on collagen-coated plates with IFN-γ
  MCP-1 production: potent synergistic effect
[6]; PMN, IFN-γ alone, uncoated plates
  MCP-1 release: no significant MCP-1 release
[6]; PMN, collagen-coated plates
  dose dependence of effect on MCP-1 release: dose-dependent
[3]
  level of DDR1 mRNA expression: partially inhibited
